Values of other authors as cited in patent publication US10183097B2, “Engineered cardiac derived compositions and methods of use” (THE JOHNS HOPKINS UNIVERSITY, priority 2013, dated 2019).

Tested on: NRVM
Details: inventors' previous NRVM study with myofibroblasts; agent added separately

Which “electrophysiological suppression of conduction” value (shortened to “electrophysiological suppression”) does the source give for `Cc1ccc2c(c1)C(=O)C1(O)CCN(c3ccccc3)C1=N2` (stereo not drawn) [blebbistatin] here?
Its value is “relieved the electrophysiological suppression of conduction”.

And the severity of arrhythmia?
The severity of arrhythmia was “reduced the severity of arrhythmia”.

For `[Gd]` [gadolinium], which “electrophysiological suppression” value is on record?
The value was “relieved the electrophysiological suppression of conduction”.

What about the severity of arrhythmia of the same compound?
Its severity of arrhythmia is “reduced the severity of arrhythmia”.

Which “electrophysiological suppression” value does the source give for `[H]/N=C(/N)N[C@H]1[C@H](O)[C@@H](O)[C@H](O[C@@H]2O[C@@H](C)[C@](O)(C=O)[C@H]2O[C@@H]2O[C@@H](CO)[C@H](O)[C@@H](O)[C@@H]2NC)[C@@H](N/C(N)=N\[H])[C@@H]1O` [streptomycin] here?
Its value is “relieved the electrophysiological suppression of conduction”.

What about the severity of arrhythmia of the same compound?
Its severity of arrhythmia is “reduced the severity of arrhythmia”.
